Laboratory results taken from ChEMBL document CHEMBL3797052 (Eur J Med Chem, 2016).

Legend:
NCI-H322M = experiment: Antiproliferative activity against human NCI-H322M cells assessed as cell growth at 10^-8 M after 48 hrs by sulforhodamine B assay; type: functional; conditions: read-out: Activity
MDA-MB-435 [1] = experiment: Antiproliferative activity against human MDA-MB-435 cells assessed as cell growth at 10^-6 M after 48 hrs by sulforhodamine B assay; type: functional; conditions: MDA-MB-435, 48 h, read-out: Activity
T47D = experiment: Antiproliferative activity against human T47D cells assessed as cell growth at 10^-8 M after 48 hrs by sulforhodamine B assay; type: functional; conditions: read-out: Activity
[2] = Antiproliferative activity against human UACC62 cells assessed as cell growth at 10^-8 M after 48 hrs by sulforhodamine B assay; type: functional; conditions: UACC-62, 48 h, read-out: Activity
[3] = Antiproliferative activity against human HCC2998 cells assessed as cell growth at 10^-8 M after 48 hrs by sulforhodamine B assay; type: functional; conditions: HCC 2998, 48 h, read-out: Activity
K562 = experiment: Antiproliferative activity against human K562 cells assessed as growth inhibition after 48 hrs by sulforhodamine B assay; type: functional; conditions: K562, 48 h; for CC50: read-out: LC50 (the source's name)
[4] = Antiproliferative activity against human SW620 cells assessed as cell growth at […] M after 48 hrs by sulforhodamine B assay; type: functional; conditions: SW-620, 48 h, read-out: Activity
[5] = Antiproliferative activity against human SF539 cells assessed as cell growth at 10^-8 M after 48 hrs by sulforhodamine B assay; type: functional; conditions: SF-539, 48 h, read-out: Activity
[6] = Antiproliferative activity against human Hs 578T cells assessed as cell growth at 10^-7 M after 48 hrs by sulforhodamine B assay; type: functional; conditions: read-out: Activity
A549 = experiment: Antiproliferative activity against human A549/ATCC cells assessed as cell growth at 10^-8 M after 48 hrs by sulforhodamine B assay; type: functional; conditions: A549, 48 h, read-out: Activity
[7] = Antiproliferative activity against human UACC62 cells assessed as growth inhibition after 48 hrs by sulforhodamine B assay; type: functional; conditions: UACC-62, 48 h; for CC50: read-out: LC50 (the source's name)
[8] = Antiproliferative activity against human SW620 cells assessed as cell growth at 10^-7 M after 48 hrs by sulforhodamine B assay; type: functional; conditions: SW-620, 48 h, read-out: Activity
CYP2C19 = CYP2C19 (Homo sapiens, UniProt P33261); experiment: Inhibition of recombinant human CYP2C19 assessed as remaining enzyme activity at 10 uM after 5 mins in presence of NADP by fluorescence plate reader analysis; type: ADME; conditions: read-out: Activity
CYP2C19, sequence (P33261 whole entry): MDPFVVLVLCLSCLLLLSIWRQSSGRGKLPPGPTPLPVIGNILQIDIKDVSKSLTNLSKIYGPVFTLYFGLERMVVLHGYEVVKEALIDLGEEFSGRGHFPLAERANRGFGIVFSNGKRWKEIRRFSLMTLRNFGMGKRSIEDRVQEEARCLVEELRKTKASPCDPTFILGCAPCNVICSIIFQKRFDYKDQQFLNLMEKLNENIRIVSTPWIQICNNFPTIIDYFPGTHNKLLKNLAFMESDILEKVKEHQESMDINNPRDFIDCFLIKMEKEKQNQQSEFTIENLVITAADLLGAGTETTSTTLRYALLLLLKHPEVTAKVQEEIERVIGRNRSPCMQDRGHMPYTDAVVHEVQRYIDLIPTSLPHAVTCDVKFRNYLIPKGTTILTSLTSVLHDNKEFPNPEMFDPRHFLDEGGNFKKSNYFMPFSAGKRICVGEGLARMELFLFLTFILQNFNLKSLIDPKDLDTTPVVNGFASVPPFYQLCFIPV

CCRF-CEM = experiment: Antiproliferative activity against human CCRF-CEM cells assessed as cell growth at 10^-4 M after 48 hrs by sulforhodamine B assay; type: functional; conditions: read-out: Activity
[9] = Antiproliferative activity against human SNB19 cells assessed as cell growth at 10^-4 M after 48 hrs by sulforhodamine B assay; type: functional; conditions: SNB-19, 48 h, read-out: Activity
NCI-H522 = experiment: Antiproliferative activity against human NCI-H522 cells assessed as cell growth at 10^-7 M after 48 hrs by sulforhodamine B assay; type: functional; conditions: NCI-H522, 48 h, read-out: Activity
[10] = Antiproliferative activity against human SF295 cells assessed as cell growth at 10^-8 M after 48 hrs by sulforhodamine B assay; type: functional; conditions: SF-295, 48 h, read-out: Activity
[11] = Antiproliferative activity against human SKOV3 cells assessed as cell growth at 10^-7 M after 48 hrs by sulforhodamine B assay; type: functional; conditions: SK-OV-3, 48 h, read-out: Activity
[12] = Antiproliferative activity against human Caki1 cells assessed as growth inhibition after 48 hrs by sulforhodamine B assay; type: functional; conditions: CAKI-1, 48 h; for CC50: read-out: LC50 (the source's name)
[13] = Antiproliferative activity against human SKOV3 cells assessed as cell growth at 10^-6 M after 48 hrs by sulforhodamine B assay; type: functional; conditions: SK-OV-3, 48 h, read-out: Activity
[14] = Antiproliferative activity against human SW620 cells assessed as cell growth at 10^-4 M after 48 hrs by sulforhodamine B assay; type: functional; conditions: SW-620, 48 h, read-out: Activity
[15] = Antiproliferative activity against human HCC2998 cells assessed as cell growth at 10^-6 M after 48 hrs by sulforhodamine B assay; type: functional; conditions: HCC 2998, 48 h, read-out: Activity
NCI-H460 = experiment: Antiproliferative activity against human NCI-H460 cells assessed as cell growth at 10^-6 M after 48 hrs by sulforhodamine B assay; type: functional; conditions: NCI-H460, 48 h, read-out: Activity
[16] = Antiproliferative activity against human MOLT4 cells assessed as cell growth at 10^-4 M after 48 hrs by sulforhodamine B assay; type: functional; conditions: MOLT-4, 48 h, read-out: Activity
[17] = Antiproliferative activity against human UO31 cells assessed as growth inhibition after 48 hrs by sulforhodamine B assay; type: functional; conditions: UO-31, 48 h; for CC50: read-out: LC50 (the source's name)
[18] = Antiproliferative activity against human RPMI8226 cells assessed as cell growth at 10^-8 M after 48 hrs by sulforhodamine B assay; type: functional; conditions: RPMI-8226, 48 h, read-out: Activity
[19] = Antiproliferative activity against human MOLT4 cells assessed as cell growth at 10^-7 M after 48 hrs by sulforhodamine B assay; type: functional; conditions: MOLT-4, 48 h, read-out: Activity
786-0 = experiment: Antiproliferative activity against human 786-0 cells assessed as cell growth at […] after 48 hrs by sulforhodamine B assay; type: functional; conditions: 786-0, 48 h, read-out: Activity
KM12 = experiment: Antiproliferative activity against human KM12 cells assessed as growth inhibition after 48 hrs by sulforhodamine B assay; type: functional; conditions: KM12, 48 h
[20] = Antiproliferative activity against human NCI-ADR-RES cells assessed as cell growth at 10^-7 M after 48 hrs by sulforhodamine B assay; type: functional; conditions: read-out: Activity
MDA-MB-435 [21] = experiment: Antiproliferative activity against human MDA-MB-435 cells assessed as cell growth at 10^-4 M after 48 hrs by sulforhodamine B assay; type: functional; conditions: MDA-MB-435, 48 h, read-out: Activity
SN12C = experiment: Antiproliferative activity against human SN12C cells assessed as cell growth at 10^-7 M after 48 hrs by sulforhodamine B assay; type: functional; conditions: read-out: Activity
M14 = experiment: Antiproliferative activity against human M14 cells assessed as cell growth at 10^-6 M after 48 hrs by sulforhodamine B assay; type: functional; conditions: M14, 48 h, read-out: Activity
U-251 = experiment: Antiproliferative activity against human U251 cells assessed as growth inhibition after 48 hrs by sulforhodamine B assay; type: functional; conditions: U-251, 48 h
[22] = Antiproliferative activity against human NCI-ADR-RES cells assessed as cell growth at 10^-8 M after 48 hrs by sulforhodamine B assay; type: functional; conditions: read-out: Activity
[23] = Antiproliferative activity against human OVCAR5 cells assessed as cell growth at 10^-6 M after 48 hrs by sulforhodamine B assay; type: functional; conditions: OVCAR-5, 48 h, read-out: Activity
[24] = Antiproliferative activity against human OVCAR5 cells assessed as cell growth at 10^-8 M after 48 hrs by sulforhodamine B assay; type: functional; conditions: OVCAR-5, 48 h, read-out: Activity

CNC(=O)c1cc(Oc2ccc3nc(NC(=O)Nc4ccc(Cl)c(Cl)c4)sc3c2)ccn1
growth at 0.01 µM (NCI-H322M): 90%
growth at 1 µM (MDA-MB-435 [1]): 93%
growth at 0.01 µM (T47D): 102%
growth at 0.01 µM [2]: 98%
growth at 0.01 µM [3]: 98%
GI50 (K562): > 100 µM
TGI (K562): > 100 µM
CC50 (K562): > 100 µM
growth at 0.01 µM [4]: 102%
growth at 0.01 µM [5]: 92%
growth at 0.1 µM [6]: 108%
growth at 0.01 µM (A549): 98%
GI50 [7]: 2.32 µM
TGI [7]: 7.76 µM
CC50 [7]: > 100 µM
growth at 0.1 µM [8]: 115%
activity at 5 min, 10 µM (CYP2C19): 83.6%
growth at 100 µM (CCRF-CEM): 79%
growth at 100 µM [9]: -74%
growth at 0.1 µM (NCI-H522): 100%
growth at 0.01 µM [10]: 86%
growth at 0.1 µM [11]: 115%
GI50 [12]: 2.46 µM
TGI [12]: 6.3 µM
CC50 [12]: > 100 µM
growth at 1 µM [13]: 117%
growth at 100 µM [14]: 48%
growth at 1 µM [15]: 100%
growth at 1 µM (NCI-H460): 107%
growth at 100 µM [16]: 78%
GI50 [17]: 2.08 µM
TGI [17]: 3.96 µM
CC50 [17]: 7.56 µM
growth at 0.01 µM [18]: 96%
growth at 0.1 µM [19]: 96%
growth at 100 µM (786-0): -67%
GI50 (KM12): 3 µM
LC50 (KM12): > 100 µM
TGI (KM12): > 100 µM
growth at 0.1 µM [20]: 98%
growth at 100 µM (MDA-MB-435 [21]): -30%
growth at 0.1 µM (SN12C): 107%
growth at 1 µM (M14): 97%
GI50 (U-251): 1.83 µM
LC50 (U-251): 6.53 µM
TGI (U-251): 3.46 µM
growth at 0.01 µM [22]: 97%

CNC(=O)c1cc(Oc2ccc3nc(NC(=O)Nc4ccc(Cl)c(C(F)(F)F)c4)sc3c2)ccn1
growth at 0.01 µM (NCI-H322M): 101%
growth at 1 µM (MDA-MB-435 [1]): 83%
growth at 0.01 µM (T47D): 90%
growth at 0.01 µM [2]: 95%
growth at 0.01 µM [3]: 107%
TGI (K562): > 100 µM
CC50 (K562): > 100 µM
growth at 0.01 µM [4]: 100%
growth at 0.01 µM [5]: 97%
growth at 0.1 µM [6]: 89%
growth at 0.01 µM (A549): 104%
GI50 [7]: 2.06 µM
CC50 [7]: > 100 µM
growth at 0.1 µM [8]: 101%
activity at 5 min, 10 µM (CYP2C19): 79.9%
growth at 100 µM (CCRF-CEM): 53%
growth at 100 µM [9]: -49%
growth at 0.1 µM (NCI-H522): 95%
growth at 0.01 µM [10]: 95%
growth at 1 µM [23]: 90%
growth at 0.1 µM [11]: 103%
GI50 [12]: 2.54 µM
CC50 [12]: > 100 µM
growth at 0.01 µM [24]: 90%
growth at 1 µM [13]: 90%
growth at 100 µM [14]: 42%
growth at 1 µM [15]: 94%
growth at 1 µM (NCI-H460): 86%
growth at 100 µM [16]: 55%
GI50 [17]: 2.17 µM
growth at 0.01 µM [18]: 100%
growth at 0.1 µM [19]: 105%
growth at 100 µM (786-0): -77%
GI50 (KM12): 3.41 µM
LC50 (KM12): > 100 µM
TGI (KM12): > 100 µM
growth at 0.1 µM [20]: 113%
growth at 100 µM (MDA-MB-435 [21]): 40%
growth at 0.1 µM (SN12C): 93%
growth at 1 µM (M14): 83%
GI50 (U-251): 1.79 µM
TGI (U-251): 3.75 µM
growth at 0.01 µM [22]: 110%

CNC(=O)c1cc(Oc2ccc3nc(NC(=O)Nc4cc(C(F)(F)F)cc(C(F)(F)F)c4)sc3c2)ccn1
growth at 0.01 µM (NCI-H322M): 95%
growth at 1 µM (MDA-MB-435 [1]): 52%
growth at 0.01 µM (T47D): 85%
growth at 0.01 µM [2]: 93%
growth at 0.01 µM [3]: 93%
GI50 (K562): 0.784 µM
TGI (K562): 4.86 µM
CC50 (K562): > 100 µM
growth at 0.01 µM [4]: 102%
growth at 0.01 µM [5]: 96%
growth at 0.1 µM [6]: 100%
growth at 0.01 µM (A549): 104%
GI50 [7]: 0.583 µM
TGI [7]: 2.1 µM
CC50 [7]: 5.77 µM
growth at 0.1 µM [8]: 113%
activity at 5 min, 10 µM (CYP2C19): 70.1%
growth at 100 µM (CCRF-CEM): -36%
growth at 100 µM [9]: -45%
growth at 0.1 µM (NCI-H522): 97%
growth at 0.01 µM [10]: 87%
growth at 1 µM [23]: 77%
growth at 0.1 µM [11]: 99%
GI50 [12]: 1.15 µM
TGI [12]: 2.69 µM
CC50 [12]: 6.28 µM
growth at 0.01 µM [24]: 94%
growth at 1 µM [13]: 72%
growth at 100 µM [14]: -71%
growth at 1 µM [15]: 66%
growth at 1 µM (NCI-H460): 62%
GI50 [17]: 1.26 µM
TGI [17]: 2.68 µM
CC50 [17]: 5.71 µM
growth at 0.01 µM [18]: 104%
growth at 100 µM (786-0): -94%
GI50 (KM12): 0.444 µM
LC50 (KM12): 7.96 µM
TGI (KM12): 2 µM
growth at 0.1 µM [20]: 98%
growth at 100 µM (MDA-MB-435 [21]): -80%
growth at 0.1 µM (SN12C): 104%
growth at 1 µM (M14): 77%
GI50 (U-251): 1.02 µM
LC50 (U-251): 4.78 µM
TGI (U-251): 2.2 µM
growth at 0.01 µM [22]: 101%
